{"source": "patent US10729810B2", "about": "“Methods, systems, and compositions for promoting bone growth” (Cayman Chemical Company, Inc., priority 2013, dated 2020)", "key": {"rat calvarial defect [1]": {"system": "rat calvarial defect", "experiment": "Rat calvarial defect model, drug in calcium phosphate cement suspended in demineralized bone matrix putty", "format": "in vivo, female Sprague Dawley rats", "details": "2.6 mm defect; 3 mg/ml in cement-DBM putty 1:8; eight weeks; FIG. 2", "method": "The rat calvarial defect model is a widely used model through which the ability of a treatment agent to induce bone formation is assessed (Aghaloo et al., The effect of NELL1 and bone morphogenetic protein-2 on calvarial bone regeneration, J. Oral Maxillofac. Surg. 2010: 68:300-308; Mark et al., Repair of calvarial nonunions by osteogenin, a bone-inductive protein, Plast. Reconstr. Surg. 1990: 86:623-30).\nBone defects are created by removal of bone from the cranium of female Sprague Dawley rats by a bone trephine (cranial defect). Cranial defects are 2.6 mm in diameter and the cranium approximately 1 mm thick. A matrix of approximately 2 mm thickness is applied to the defect. Thus the dosing volume for each defect is calculated as π*r^2*matrix thickness=3.14*1.3^2*2=10.61 μl and rounded to 11 μl for purposes of dose calculation.\nEXAMPLE 2C is tested at seven doses with five rats in each group. These are 3, 10, 30, 100 and 300 μg/ml and 1 and 3 mg/ml. A negative control group treated with dosing matrix containing no drug (Vehicle) as well as a positive control group treated with 50 μg/ml recombinant human bone morphogenetic protein 2 (BMP-2) are also included in the study. […]\nThe area measured each week is compared to that of the first week and the degree of repair calculated by the following formula: (original area−current area)/original area*100 […]"}, "rat calvarial defect [2]": {"system": "rat calvarial defect", "experiment": "Rat calvarial defect model, drug-cement loaded into intact demineralized bone matrix", "format": "in vivo, female Sprague Dawley rats", "details": "5.0 mm defect; 10 mg/gm of cement; four weeks; FIG. 4", "method": "Bone defects are created by removal of bone from the cranium of female Sprague Dawley rats by a bone trephine (cranial defect). Cranial defects are 5.0 mm in diameter and the cranium approximately 1 mm thick.\nEXAMPLE 2E′ is delivered inside calcium phosphate cement that, after loading with drug set inside three voids each of approximately 1.0 mm in diameter drilled into a solid demineralized bone matrix circular block of 5.0 mm in diameter and 1 mm thickness. EXAMPLE 2E′ is tested at 10 mg/gm of cement. A negative control group treated with dosing matrix containing no drug (Vehicle) is also included in the study.\nDosing solutions are made from a 5 mg/ml EXAMPLE 2E′ stock which is made by dissolving 2.08 mg of neat EXAMPLE 2E′ in 416 μl of 100% ethanol.\nThe volume of each dosing void is π*r^2*matrix thickness=3.14*0.5^2*1=0.8 μl. Thus a 5 mm solid demineralized matrix with three voids filled with cement contains 2.4 μl of loading cement. The cement that is used weighs 107 mg for 100 μl volume. Thus 2.4 ul of volume is occupied by 2.6 mg of cement. A 10 mg/gm dosing cement provides 26 ug of EXAMPLE 2E′ for each 5 mm intact demineralized bone matrix block. […]\nThe area measured each week is compared to that of the first week and the degree of repair calculated by the following formula: (original area−current area)/original area*100"}}, "data": [{"smiles": "CCC#CC[C@H](C)[C@H](O)/C=C/[C@H]1CCC(=O)N1CCCCCCC(=O)O", "note": "[2E′, 7-((R)-2-((3S,4S,E)-3-hydroxy-4-methylnon-1-en-6-yn-1-yl)-5-oxopyrrolidin-1-yl)heptanoic acid]", "values": [{"measurement": "Healing of a calvarial bone defect", "setting": "rat calvarial defect [1]", "value": "Accelerated Healing"}, {"measurement": "Healing of a calvarial bone defect, loaded into intact demineralized bone matrix", "setting": "rat calvarial defect [2]", "value": "Accelerated Healing"}]}]}
